Source: patent publication US6387906B1, “2,4,4-trisubstituted-1,3-dioxolane antifungals” (priority 1997, dated 2002)

How the values were obtained:
Candida kefyr = assay: Measurement of antifungal activity in vitro (lowest active dose) vs. Candida kefyr; assay type: cell-based; settings: lowest concentration inhibiting growth below 35% of control growth; CYG broth, 37° C. for 48 h, turbidimetry
Protocol: (§1) Test compounds were dissolved at a concentration of 10^−2 M in dimethyl sulfoxide (DMSO) and diluted into CYG broth (Odds, F. C. Antimicrobial Agents and Chemotherapy 1992; 36: 1727-1737) to give a final concentration of 25 μM and, in most tests, 5 μM. For some compounds the tests were done at 100, 10, 1.0 and 0.1 μM. Cultures were inoculated with Candida.kefyr to an initial concentration of 10^4/ml and with Trichophyton rubrum to an equivalent concentration determined by turbidimetry. Cultures were incubated in the wells of microdilution plates at 37° C. for 48 h (C. kefyr) and at 30° C. for 5-7 days (T. rubrum). Growth in wells containing test compounds was estimated turbidimetrically as a percentage of growth in compound-free controls and the lowest concentration of compound that inhibited the growth of an isolate below 35% of control growth was recorded as the lowest active dose (LAD).

Trichophyton rubrum = assay: Measurement of antifungal activity in vitro (lowest active dose) vs. Trichophyton rubrum; assay type: cell-based; settings: lowest concentration inhibiting growth below 35% of control growth; CYG broth, 30° C. for 5-7 days, turbidimetry
Protocol: as §1

In the case of `CC(C)N1CCN(c2ccc(N3CCN(c4ccc(OC[C@H]5OC[C@](Cn6cncn6)(c6ccc(F)cc6F)O5)cc4)CC3)cc2)C1=O` [Compound 51, (2S-cis)-1-[4-[4-[4-[[4-(2,4-difluorophenyl)-4-(1H-1,2,4-triazol-1-ylmethyl)-1,3-dioxolan-2-yl]methoxy]phenyl]-1-piperazinyl]phenyl]-3-(1-methylethyl)-2-imidazolidinone], the “LAD (μM) vs. C. keyr” value (Candida kefyr) was “≦0.1 μM”, the “LAD (μM) vs. T. rubrum” value (Trichophyton rubrum) was “≦0.1 μM” and the melting point was 177.8 °C.
